Assay results published in ChEMBL document CHEMBL1127832, “Furoxans as nitric oxide donors. 4-Phenyl-3-furoxancarbonitrile: thiol-mediated nitric oxide release and biological evaluation” (J Med Chem, 1994).

Experiments:
Rattus norvegicus [1] = species: Rattus norvegicus; assay: Compound was tested for percent recovery of noradrenergic tone after washing aortic preparations with fresh Kreb's buffer; assay type: functional; settings: Aorta
Rattus norvegicus [2] = species: Rattus norvegicus; assay: Compound was tested for its vasodilator effects on endothelium-denuded strips of rat aorta precontracted with noradrenaline; assay type: functional

With `N#Cc1c(-c2ccccc2)no[n+]1[O-]` [FUROXAN] the Recovery (Rattus norvegicus [1]) was 66%.

With `O=[N+]([O-])OCC(CO[N+](=O)[O-])O[N+](=O)[O-]` [NITROGLYCERIN] the EC50 (Rattus norvegicus [2]) was 22 nM.
